Patent US8063071B2 (GlaxoSmithKline, LLC, priority 2007, dated 2011)
Structures can show the parent of a compound that is named as a salt.

What was measured:
[1] = target: T1, Recombinant human IKKβ (residues 1-737) (Homo sapiens, UniProt O14920); experiment: IKK2 assay (TR-FRET); type: biochemical; details: ATP 1 μM final, read-out: pIC50 against IKK2 (converted)
T1 construct: Recombinant human IKKβ (residues 1-737); GST (C); made in house
T1 sequence (O14920 1-737): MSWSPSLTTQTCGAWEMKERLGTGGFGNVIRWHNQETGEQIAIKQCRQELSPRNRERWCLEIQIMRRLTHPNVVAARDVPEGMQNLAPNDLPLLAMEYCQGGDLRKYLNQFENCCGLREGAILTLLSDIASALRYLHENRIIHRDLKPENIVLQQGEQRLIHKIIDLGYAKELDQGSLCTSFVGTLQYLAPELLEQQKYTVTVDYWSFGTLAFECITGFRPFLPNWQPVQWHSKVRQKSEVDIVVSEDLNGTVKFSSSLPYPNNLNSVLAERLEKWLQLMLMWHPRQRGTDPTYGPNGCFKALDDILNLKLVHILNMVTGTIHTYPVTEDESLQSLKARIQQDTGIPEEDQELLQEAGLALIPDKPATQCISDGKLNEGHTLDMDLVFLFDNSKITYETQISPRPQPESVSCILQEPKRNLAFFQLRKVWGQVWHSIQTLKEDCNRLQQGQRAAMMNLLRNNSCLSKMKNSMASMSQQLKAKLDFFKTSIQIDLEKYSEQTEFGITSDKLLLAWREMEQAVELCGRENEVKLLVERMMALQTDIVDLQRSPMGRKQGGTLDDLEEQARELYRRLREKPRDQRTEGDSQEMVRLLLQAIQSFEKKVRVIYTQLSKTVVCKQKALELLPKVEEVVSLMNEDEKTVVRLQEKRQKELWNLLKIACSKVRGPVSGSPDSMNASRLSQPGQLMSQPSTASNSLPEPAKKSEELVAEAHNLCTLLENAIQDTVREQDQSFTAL
How it was run: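 Baculovirus-expressed C-terminal GST-tagged IKKβ (0.5-5 nM final) in HEPES pH 7.4, MgCl2, CHAPS, DTT, BSA with 1.7% DMSO; 25 nM GST-IB substrate and 1 μM ATP, 15 min at room temperature. EDTA stop; phospho-Ser32/36 detected by Eu-antibody/APC-anti-GST TR-FRET, 665/620 nm ratio.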

[2] = tested on: human monocyte stimulated cytokine production (TNF-α); experiment: Monocyte assay (LPS-stimulated TNF-α production); type: cell-based; details: 24 h, 200 ng/mL LPS, TNF-α by ELISA
How it was run: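 Human CD14+ monocytes were purified from blood and plated at 1×10^6 cells/mL in RPMI 1640 with 10% FBS. Compound was added 30 min before stimulation with 200 ng/mL LPS (0.1% DMSO final), followed by 24 hrs at 37 C. Supernatant TNF-α was measured by ELISA, and viability by trypan blue exclusion.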

Structure (SMILES) | IC50 [1] | IC50 [2]
CCS(=O)(=O)N1CCC(c2c[nH]c3c(C(N)=O)cc(-c4csc(CNCC(C)C)c4)cc23)CC1 [Example 105, 3-[1-(ethylsulfonyl)-4-piperidinyl]-5-(5-{[(2-methylpropyl)amino]methyl}-3-thienyl)-1H-indole-7-carboxamide trifluoroacetate] | ≤ 10 µM | ≤ 1.5 µM
CCCNCc1cc(-c2cc(C(N)=O)c3[nH]cc(C4CCN(S(=O)(=O)CC)CC4)c3c2)cs1 [Example 106, 3-[1-(ethylsulfonyl)-4-piperidinyl]-5-{5-[(propylamino)methyl]-3-thienyl}-1H-indole-7-carboxamide trifluoroacetate] | ≤ 10 µM | ≤ 1.5 µM
CCN(CC)Cc1cc(-c2cc(C(N)=O)c3[nH]cc(C4CCN(S(=O)(=O)CC)CC4)c3c2)cs1 [Example 107, 5-{5-[(diethylamino)methyl]-3-thienyl}-3-[1-(ethylsulfonyl)-4-piperidinyl]-1H-indole-7-carboxamide trifluoroacetate] | ≤ 10 µM | ≤ 1.5 µM
CCS(=O)(=O)N1CCC(c2c[nH]c3c(C(N)=O)cc(-c4csc(CN5[C@H](C)CC[C@H]5C)c4)cc23)CC1 [Example 108, 5-(5-{[(2R,5R)-2,5-dimethyl-1-pyrrolidinyl]methyl}-3-thienyl)-3-[1-(ethylsulfonyl)-4-piperidinyl]-1H-indole-7-carboxamide trifluoroacetate] | ≤ 10 µM | ≤ 1.5 µM
CCS(=O)(=O)N1CCC(c2c[nH]c3c(C(N)=O)cc(-c4csc(CNC5CC5)c4)cc23)CC1 [Example 109, 5-{5-[(cyclopropylamino)methyl]-3-thienyl}-3-[1-(ethylsulfonyl)-4-piperidinyl]-1H-indole-7-carboxamide trifluoroacetate] | ≤ 10 µM | ≤ 1.5 µM
CCS(=O)(=O)N1CCC(c2c[nH]c3c(C(N)=O)cc(-c4csc(CNC5CCC5)c4)cc23)CC1 [Example 110, 5-{5-[(cyclobutylamino)methyl]-3-thienyl}-3-[1-(ethylsulfonyl)-4-piperidinyl]-1H-indole-7-carboxamide trifluoroacetate] | ≤ 10 µM | ≤ 1.5 µM
CCS(=O)(=O)N1CCC(c2c[nH]c3c(C(N)=O)cc(-c4csc(CN(C)C)c4)cc23)CC1 [Example 111, 5-{5-[(dimethylamino)methyl]-3-thienyl}-3-[1-(ethylsulfonyl)-4-piperidinyl]-1H-indole-7-carboxamide trifluoroacetate] | ≤ 10 µM | ≤ 1.5 µM
CCS(=O)(=O)N1CCC(c2c[nH]c3c(C(N)=O)cc(-c4csc(CNCC5CCCC5)c4)cc23)CC1 [Example 112, 5-(5-{[(cyclopentylmethyl)amino]methyl}-3-thienyl)-3-[1-(ethylsulfonyl)-4-piperidinyl]-1H-indole-7-carboxamide trifluoroacetate] | ≤ 10 µM | ≤ 1.5 µM
CCS(=O)(=O)N1CCC(c2c[nH]c3c(C(N)=O)cc(-c4csc(CN[C@H](C)C(C)C)c4)cc23)CC1 [Example 113, 5-[5-({[(1R)-1,2-dimethylpropyl]amino}methyl)-3-thienyl]-3-[1-(ethylsulfonyl)-4-piperidinyl]-1H-indole-7-carboxamide trifluoroacetate] | ≤ 10 µM | ≤ 1.5 µM
CCS(=O)(=O)N1CCC(c2c[nH]c3c(C(N)=O)cc(-c4csc(CNC5CCCC5)c4)cc23)CC1 [Example 114, 5-{5-[(cyclopentylamino)methyl]-3-thienyl}-3-[1-(ethylsulfonyl)-4-piperidinyl]-1H-indole-7-carboxamide trifluoroacetate] | ≤ 10 µM | ≤ 1.5 µM
CCS(=O)(=O)N1CCC(c2c[nH]c3c(C(N)=O)cc(-c4csc(CNCC5CC5)c4)cc23)CC1 [Example 115, 5-(5-{[(cyclopropylmethyl)amino]methyl}-3-thienyl)-3-[1-(ethylsulfonyl)-4-piperidinyl]-1H-indole-7-carboxamide trifluoroacetate] | ≤ 10 µM | ≤ 1.5 µM

Results, then the molecule that gave them:

IC50 [1] | IC50 [2] | Structure (SMILES)
≤ 10 µM | ≤ 1.5 µM | CCS(=O)(=O)N1CCC(c2c[nH]c3c(C(N)=O)cc(-c4csc(CN[C@@H](C)C(C)C)c4)cc23)CC1 [Example 116, 5-[5-({[(1S)-1,2-dimethylpropyl]amino}methyl)-3-thienyl]-3-[1-(ethylsulfonyl)-4-piperidinyl]-1H-indole-7-carboxamide trifluoroacetate]
≤ 10 µM | > 1 µM | CCS(=O)(=O)N1CCC(c2c[nH]c3c(C(N)=O)cc(-c4csc(CNCc5ccccc5)c4)cc23)CC1 [Example 118, 3-[1-(ethylsulfonyl)-4-piperidinyl]-5-(5-{[(phenylmethyl)amino]methyl}-3-thienyl)-1H-indole-7-carboxamide trifluoroacetate]
≤ 10 µM | ≤ 1.5 µM | CCS(=O)(=O)N1CCC(c2c[nH]c3c(C(N)=O)cc(-c4csc(CNC[C@@H]5CCCO5)c4)cc23)CC1 [Example 119, 3-[1-(ethylsulfonyl)-4-piperidinyl]-5-[5-({[(2S)-tetrahydro-2-furanylmethyl]amino}methyl)-3-thienyl]-1H-indole-7-carboxamide trifluoroacetate]
≤ 10 µM | ≤ 1.5 µM | CCS(=O)(=O)N1CCC(c2c[nH]c3c(C(N)=O)cc(-c4csc(CNCC5CCOCC5)c4)cc23)CC1 [Example 120, 3-[1-(ethylsulfonyl)-4-piperidinyl]-5-(5-{[(tetrahydro-2H-pyran-4-ylmethyl)amino]methyl}-3-thienyl)-1H-indole-7-carboxamide trifluoroacetate]
≤ 10 µM | ≤ 1.5 µM | CCCCNCc1cc(-c2cc(C(N)=O)c3[nH]cc(C4CCN(S(=O)(=O)CC)CC4)c3c2)cs1 [Example 121, 5-{5-[(butylamino)methyl]-3-thienyl}-3-[1-(ethylsulfonyl)-4-piperidinyl]-1H-indole-7-carboxamide trifluoroacetate]
≤ 10 µM | ≤ 1.5 µM | CCS(=O)(=O)N1CCC(c2c[nH]c3c(C(N)=O)cc(-c4csc(CN5CCC[C@@H]5COC)c4)cc23)CC1 [Example 124, 3-[1-(ethylsulfonyl)-4-piperidinyl]-5-[5-({(2R)-2-[(methyloxy)methyl]-1-pyrrolidinyl}methyl)-3-thienyl]-1H-indole-7-carboxamide trifluoroacetate]
≤ 10 µM | ≤ 1.5 µM | CCS(=O)(=O)N1CCC(c2c[nH]c3c(C(N)=O)cc(-c4ccc(CCNC)cc4)cc23)CC1 [Example 125, 3-[1-(ethylsulfonyl)-4-piperidinyl]-5-{4-[2-(methylamino)ethyl]phenyl}-1H-indole-7-carboxamide]
≤ 10 µM | ≤ 1.5 µM | CCCNCCc1ccc(-c2cc(C(N)=O)c3[nH]cc(C4CCN(S(=O)(=O)CC)CC4)c3c2)cc1 [Example 126, 3-[1-(ethylsulfonyl)-4-piperidinyl]-5-{4-[2-(propylamino)ethyl]phenyl}-1H-indole-7-carboxamide]
≤ 10 µM | ≤ 1.5 µM | CCNCCc1ccc(-c2cc(C(N)=O)c3[nH]cc(C4CCN(S(=O)(=O)CC)CC4)c3c2)cc1 [Example 127, 5-{4-[2-(ethylamino)ethyl]phenyl}-3-[1-(ethylsulfonyl)-4-piperidinyl]-1H-indole-7-carboxamide]
≤ 10 µM | > 1 µM | CCS(=O)(=O)N1CCC(c2c[nH]c3c(C(N)=O)cc(-c4ccc(CNC(=O)c5cc(C)nn5C(C)(C)C)cc4)cc23)CC1 [Example 128, 5-{4-[({[1-(1,1-dimethylethyl)-3-methyl-1H-pyrazol-5-yl]carbonyl}amino)methyl]phenyl}-3-[1-(ethylsulfonyl)-4-piperidinyl]-1H-indole-7-carboxamide trifluoroacetate]
≤ 10 µM | ≤ 1.5 µM | CCS(=O)(=O)N1CCC(c2c[nH]c3c(C(N)=O)cc(-c4ccc(CNC(=O)c5ccncc5)cc4)cc23)CC1 [Example 129, 3-[1-(ethylsulfonyl)-4-piperidinyl]-5-(4-{[(4-pyridinylcarbonyl)amino]methyl}phenyl)-1H-indole-7-carboxamide]
≤ 10 µM | ≤ 1.5 µM | CCS(=O)(=O)N1CCC(c2c[nH]c3c(C(N)=O)cc(-c4ccc(CNC(=O)C5CCCC5)cc4)cc23)CC1 [Example 130, 5-(4-{[(cyclopentylcarbonyl)amino]methyl}phenyl)-3-[1-(ethylsulfonyl)-4-piperidinyl]-1H-indole-7-carboxamide]
